Where a SMILES comes first, the peptide text is derived from it. The star is where a group is joined. Cbz = O=C(OCc1ccccc1)*
Tested on: TDII FGFR3
Experiment: Proteasome inhibition in cells expressing TDII FGFR3 (immunoblot)
Assay type: cell-based, mouse
Details: 17-AAG-induced decrease, FIG. 11
From the text: The two FGFR3 bands reflect glycosylation differences.

## CC(C)C[C@@H](C=O)NC(=O)[C@H](CC(C)C)NC(=O)[C@H](CC(C)C)NC(=O)OCc1ccccc1 [MG132] (Cbz-Leu-Leu-Leu-aldehyde)
  TDII FGFR3 degradation: decreased TDII FGFR3 degradation

Source: US8426396B2, “Treatment for achondroplasia” (Shriners Hospitals for Children, priority 2008, dated 2013)
